Data: patent publication US10730923B2 (Indiana University Research and Technology Corporation, priority 2011, dated 2020)
*1 amine or outer side, *2 acyl side, *3 side chain or, on linkers, in order; H or OH if unused. Where a SMILES comes first, the peptide text is derived from it. Where no end group is shown, it is not given here. Side-chain parts run from the residue outwards. [ ]: non-standard residue; d: D form. The star is where a group is joined. γGlu = O=C(O)[C@H](CCC(=O)[*:2])N[*:1]; Palmitoyl = CCCCCCCCCCCCCCCC(=O)*; Aib = CC(C)(N)C(=O)O

Key:
Assay type in all cases: in vivo
[1] = obese rhesus monkeys, daily dosing for 21 days: body weight and food intake
Description: The in vivo effects of a peptide of the invention were confirmed in obese rhesus monkeys by administering daily for 21 days a vehicle control, a commercially available product (Liraglutide), a peptide of SEQ ID NO: 20, or a peptide of SEQ ID NO: 17. […] Body weight and food intake were measured.

[2] = diabetic rhesus monkeys, 10 days treatment: body weight, fasting blood glucose, Meal Tolerance Test; details: 1 μg/kg s.c. for 10 days
Description: The in vivo effects of a peptide of the invention were tested in diabetic rhesus monkeys (n=7) that were aged 16-26 years and having an average body weight of […]. Diabetic rhesus monkeys (n=7) that were aged 16-26 years with an average body weight of […] were administered a vehicle control, Liraglutide at a dose of 10 μg/kg s.c. or a peptide of SEQ ID NO: 17 at a dose of 1 μg/kg s.c. for 10 days. At the end of each treatment, fasting blood glucose (FBG) was measured first followed by a Meal Tolerance Test (MTT) to assess glucose tolerance. […] Data are expressed in FIG. 4 as mean±SEM. *P<0.05 versus vehicle.

[3] = diet-induced obese (DIO) mice, daily dosing for nine days: body weight and ambient glucose
Description: Mice were administered a vehicle control or a dose of a peptide daily for nine days. The peptides tested in this study included a peptide of SEQ ID NO: 12, a peptide of SEQ ID NO: 17, a peptide of SEQ ID NO: 18, and a peptide of SEQ ID NO: 19. Doses of each peptide were varied—each of the peptides of SEQ ID NO: 12, 17, and 19 was administered at a dose of either 3 nmol/kg or 9 nmol/kg, while the peptide of SEQ ID NO: 18 was administered at a dose of 1 nmol/kg, 3 nmol/kg, or 9 nmol/kg. Data are expressed as mean±SEM.
In addition to cumulative body weight change, ambient glucose levels of the DIO mice were measured.

Molecule | body weight following a one week wash-out ([1]; Day 28) | food intake, % change vs. baseline ([1]; daily s.c. for 21 days, Liraglutide 20 μg/kg, SEQ ID NO: 17 3 μg/kg) | glucose tolerance during Meal Tolerance Test (MTT) compared to vehicle [2] | reduction in glucose levels compared to vehicle control mice ([3]; 3 nmol/kg, Day 7) | decrease in glucose levels compared to vehicle control mice ([3]; 3 nmol/kg, Day 9) | decrease in glucose levels compared to vehicle control mice ([3]; 9 nmol/kg, Day 4) | decrease in glucose levels compared to vehicle control mice ([3]; 9 nmol/kg, Day 7) | decrease in glucose levels compared to vehicle control mice ([3]; 9 nmol/kg, Day 9) | decrease in ambient glucose vs. vehicle ([3]; 3 nmol/kg or 9 nmol/kg dose, by Day 4)
CCCCCCCCCCCCCCCC(=O)N[C@@H](CCC(=O)N[C@@H](CCC(=O)NCCCC[C@H](NC(=O)[C@H](CC(=O)O)NC(=O)[C@H](CO)NC(=O)[C@@H](NC(=O)[C@H](Cc1ccccc1)NC(=O)[C@@H](NC(=O)CNC(=O)[C@H](CCC(N)=O)NC(=O)C(C)(C)NC(=O)[C@@H](N)Cc1c[nH]cn1)[C@@H](C)O)[C@@H](C)O)C(=O)N[C@@H](CO)C(=O)N[C@@H](CCCCN)C(=O)N[C@@H](Cc1ccc(O)cc1)C(=O)N[C@@H](CC(C)C)C(=O)N[C@@H](CC(=O)O)C(=O)NC(C)(C)C(=O)N[C@@H](CCCNC(=N)N)C(=O)N[C@@H](C)C(=O)N[C@@H](C)C(=O)N[C@@H](CCC(N)=O)C(=O)N[C@@H](CC(=O)O)C(=O)N[C@@H](Cc1ccccc1)C(=O)N[C@H](C(=O)N[C@@H](CCC(N)=O)C(=O)N[C@@H](Cc1c[nH]c2ccccc12)C(=O)N[C@@H](CC(C)C)C(=O)N[C@@H](CCSC)C(=O)N[C@@H](CC(N)=O)C(=O)N[C@H](C(=O)N[C@@H](CCCCN)C(=O)N[C@@H](CCC(N)=O)C(=O)O)[C@@H](C)O)C(C)C)C(=O)O)C(=O)O [SEQ ID NO: 17] (H-H[Aib]QGTFTSDK([γGlu-γGlu-Palmitoyl])SKYLD[Aib]RAAQDFVQWLMNTKQ-OH; N-terminus assumed) | regained much of the weight that was lost | −25.7%±3.2 | improved glucose tolerance | ~28% | ~19% | ~48% | ~48% | ~45% | –
SEQ ID NO: 18: peptide of SEQ ID NO: 18 of the sequence listing, tested in DIO mice; sequence not printed in the text (HXQGTFTSDKSKYLDERAAQDFVQWLMDT; (2)..(2) Xaa is AIB; (10)..(10) Acylated with a C16 fatty acyl group via gamma-Glu-gamma-Glu spacer; (29)..(29) C-terminal amidation) | – | – | – | – | – | – | – | – | −29%
SEQ ID NO: 19: peptide of SEQ ID NO: 19 of the sequence listing, tested in DIO mice; sequence not printed in the text (H[dS]QGTFTSDK([γGlu-Palmitoyl])SKYLDERAAQDFVQWLLDT-NH2; N-terminus assumed; SMILES CCCCCCCCCCCCCCCC(=O)N[C@@H](CCC(=O)NCCCC[C@H](NC(=O)[C@H](CC(=O)O)NC(=O)[C@H](CO)NC(=O)[C@@H](NC(=O)[C@H](Cc1ccccc1)NC(=O)[C@@H](NC(=O)CNC(=O)[C@H](CCC(N)=O)NC(=O)[C@@H](CO)NC(=O)[C@@H](N)Cc1c[nH]cn1)[C@@H](C)O)[C@@H](C)O)C(=O)N[C@@H](CO)C(=O)N[C@@H](CCCCN)C(=O)N[C@@H](Cc1ccc(O)cc1)C(=O)N[C@@H](CC(C)C)C(=O)N[C@@H](CC(=O)O)C(=O)N[C@@H](CCC(=O)O)C(=O)N[C@@H](CCCNC(=N)N)C(=O)N[C@@H](C)C(=O)N[C@@H](C)C(=O)N[C@@H](CCC(N)=O)C(=O)N[C@@H](CC(=O)O)C(=O)N[C@@H](Cc1ccccc1)C(=O)N[C@H](C(=O)N[C@@H](CCC(N)=O)C(=O)N[C@@H](Cc1c[nH]c2ccccc12)C(=O)N[C@@H](CC(C)C)C(=O)N[C@@H](CC(C)C)C(=O)N[C@@H](CC(=O)O)C(=O)N[C@H](C(N)=O)[C@@H](C)O)C(C)C)C(=O)O) | – | – | – | – | – | ~40% | ~39% | ~26% | –
